According to patent US20130261177A1, “COMPOUNDS CAPABLE OF MODULATING/PRESERVING ENDOTHELIAL INTEGRITY FOR USE IN PREVENTION OR TREATMENT OF ACUTE TRAUMATIC COAGULOPATHY AND RESUSCITATED CARDIAC ARREST” (priority 2010, published 2013):

Columns and labels:
[1] = tested on: whole blood platelet aggregation; test: Whole blood impedance aggregometry (Multiplate) in healthy volunteers infused with flolan; type: in vivo, human; settings: 6 healthy volunteers, 4 ng/kg/min intravenously, after 60 and 120 min infusion
Protocol: (§1) Six healthy volunteers were administered flolan (Prostacycline) intravenously at a dose of 4 ng/kg/min for 2 h. Blood samples for whole blood viscoelastical assay (Thrombelastography [TEG]) and whole blood platelet aggregation (Multiplate) were obtained before infusion of Flolan, after 60 min infusion of Flolan and after 120 min infusion of Flolan.
Whole blood impedance aggregometry was analyzed by the Multiple Platelet function Analyzer (MultiPlate® analyzer). Analysis employing various platelet agonists: ASPItest (activation by arachidonic acid), COLtest (activation by collagen through the collagen receptor), TRAPtest (activation by TRAP-6 stimulates the thrombin receptor on the platelet surface and ADPtest (activation by ADP stimulates platelet activation by the ADP receptors).
MultiPlate continuously records platelet aggregation. The increase of impedance by the attachment of platelets onto the Multiplate sensors is transformed to arbitrary aggregation units (AU) and plotted against time as depicted in FIG. 2.

thrombomodulin = test: Plasma biomarker ELISA after Flolan infusion in healthy volunteers: thrombomodulin; type: in vivo, human; settings: 4 ng/kg/min intravenously for 2 h, prolonged for several hours after ceasing the infusion
Protocol: (§2) Eight healthy volunteers were administered Flolan® (Prostacyclin) intravenously at a dose of 4 ng/kg/min for 2 h. Blood samples were analyzed for plasma biomarkers indicative of endothelial cell (thrombomodulin, PAI-1) and glycocalyx (syndecan-1) activation and/or damage, cellular necrosis (histone-complexed DNA fragments, HMGB1) and anticoagulation (protein C, antithrombin, TFPI) at the following time points: Before the infusion (Oh), immediately after ceasing the infusion (2 h) and then 4 h, 5 h, 6 h, 8 h and 24 h after starting the infusion. The concentration of the individual biomarkers in plasma was analyzed by commercially available ELISA kits according to the manufactures recommendations. Paired t-tests with p-values <0.05 were considered significant.

[2] = type: in vivo
Protocol: Ninety-four critically ill patients admitted to the intensive care unit (ICU) underwent haemofiltration with or without concomitant Flolan (prostacycline) treatment. None of the patients were suffering from Acute Traumatic Coagulopathy nor from sequelae to cardiac arrest. Flolan was administered in a low dose in the filters to prevent these from clotting and consequently there was only a minor spill over of Flolan to the systemic circulation. The patients were retrospectively reviewed.
However, patients in the flolan group were more severely ill as evaluated by a lower platelet count at start of hemofiltration, a higher frequency of severe thrombocytopenia, a higher frequency of DIC diagnoses, a higher maximum SOFA score and a higher SOFA score at hemofiltration initiation as compared to the patients receiving non-flolan.

[3] = Blood pressure and heart rate during intravenous flolan infusion in healthy volunteers; type: in vivo, human; settings: 4 ng/kg/min intravenously for 2 h, any time point
Protocol: as §1

Protein C = test: Plasma biomarker ELISA after Flolan infusion in healthy volunteers: Protein C; type: in vivo, human; settings: 4 ng/kg/min intravenously for 2 h, in the hours after ceasing the infusion
Protocol: as §2

PAI-1 = test: Plasma biomarker ELISA after Flolan infusion in healthy volunteers: PAI-1; type: in vivo, human; settings: 4 ng/kg/min intravenously for 2 h
Protocol: as §2

antithrombin = test: Plasma biomarker ELISA after Flolan infusion in healthy volunteers: antithrombin; type: in vivo, human; settings: 4 ng/kg/min intravenously for 2 h
Protocol: as §2

[4] = tested on: whole blood haemostatic competence; test: Whole blood viscoelastical assay (Thrombelastography, TEG), kaolin activated, in healthy volunteers infused with flolan; type: in vivo, human; settings: 6 healthy volunteers, 4 ng/kg/min intravenously, after 60 and 120 min infusion
Protocol: Six healthy volunteers were administered flolan (Prostacycline) intravenously at a dose of 4 ng/kg/min for 2 h. Blood samples for whole blood viscoelastical assay (Thrombelastography [TEG]) and whole blood platelet aggregation (Multiplate) were obtained before infusion of Flolan, after 60 min infusion of Flolan and after 120 min infusion of Flolan. With regard to the TEG assay this was performed as recommended by the manufacturer and 340 μl are mixed with 20 μl CaCl 0.2 M (final concentration 11.1 mM in the cup) and kaolin at 37° C. after which the haemostatic activity is recorded as depicted in FIG. 1.

CCCCC[C@H](O)/C=C/[C@@H]1[C@H]2C/C(=C/CCCC(=O)O)O[C@H]2C[C@H]1O [Flolan, epoprostenol sodium]
Multiplate values (agonists ASPI, COL, ADP, TRAP), baseline vs. during infusion [1]: no significant difference | circulating level of thrombomodulin (thrombomodulin): marked decrease | mortality at 30 days ([2]; ICU patients, low dose Flolan in the haemofiltration filters, vs. 39% non-flolan, p=0.12): 21% | 90 day mortality ([2]; ICU patients, low dose Flolan in the haemofiltration filters, vs. 53% non-flolan, p=0.10): 34% | mortality at 365 days ([2]; ICU patients, low dose Flolan in the haemofiltration filters, vs. 57% non-flolan, p=0.09): 38% | Platelet count (difference before vs. after haemofiltration) ([2]; human, in vivo): +14 | haemostatic competence as evaluated by transfusion requirements ([2]; human, in vivo): does not negatively influence | total transfusion requirements and specifically of FFP during hemofiltration ([2]; human, in vivo): increased total transfusion requirements | blood pressure, change from baseline [3]: did not change | heart rate, change from baseline [3]: did not change | circulating level of Protein C (Protein C): decreased | circulating level of PAI-1 (PAI-1): declined | circulating level of antithrombin (antithrombin): decreased | TEG values (R, Angle, MA), baseline vs. during infusion [4]: No significant difference
